In ChEMBL document CHEMBL1201862, “PubChem BioAssay data set” (2004):
Calls of active or inactive are those of the source.

Key:
HeLa = assay: ATP-based viability loss in HeLa cells – cell-based, CellTiter-Glo luminescence, cherry-pick samples, cytotoxicity control for MITF activator project, dose response (AID 540259); format: functional; settings: Homo sapiens
[1] = system: Streptococcus sp. 'group A'; assay: Streptococcus pyogenes SK(-)GAS viability under kanamycin – luminescence, BacTiterGlo, confirmation, counter-screen for streptokinase expression inhibitor project, dose response (AID 1900); format: functional, organism-based
BJ [2] = assay: BJ-TERT fibroblast viability loss – cell-based, RAS-independent, luminescence, dose response (AID 1933); format: functional; settings: Homo sapiens
[3] = target: T1, Tyrosine-protein phosphatase non-receptor type 7 (Homo sapiens, UniProt P35236); format: functional
T1 sequence (P35236 whole entry): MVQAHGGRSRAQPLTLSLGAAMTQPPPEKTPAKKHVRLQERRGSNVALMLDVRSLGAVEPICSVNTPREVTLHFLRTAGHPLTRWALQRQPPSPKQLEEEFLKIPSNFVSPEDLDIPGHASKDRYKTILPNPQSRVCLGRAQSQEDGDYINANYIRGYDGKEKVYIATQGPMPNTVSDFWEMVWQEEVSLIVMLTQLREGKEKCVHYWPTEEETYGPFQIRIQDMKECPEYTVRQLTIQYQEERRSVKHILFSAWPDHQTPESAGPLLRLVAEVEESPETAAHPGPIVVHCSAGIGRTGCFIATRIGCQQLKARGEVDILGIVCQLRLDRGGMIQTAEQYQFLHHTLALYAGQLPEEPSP

Streptokinase A = target: T2, Streptokinase A (Streptococcus pyogenes serotype M1, UniProt P10520); assay: viability-normalized secreted streptokinase activity reduction – plasminogen activation absorbance, OD405, dose response (AID 1914); format: functional, Streptococcus pyogenes M1 GAS;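 also: secreted streptokinase activity via plasminogen activation per viability signal from cell pellet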
T2 sequence (P10520 whole entry): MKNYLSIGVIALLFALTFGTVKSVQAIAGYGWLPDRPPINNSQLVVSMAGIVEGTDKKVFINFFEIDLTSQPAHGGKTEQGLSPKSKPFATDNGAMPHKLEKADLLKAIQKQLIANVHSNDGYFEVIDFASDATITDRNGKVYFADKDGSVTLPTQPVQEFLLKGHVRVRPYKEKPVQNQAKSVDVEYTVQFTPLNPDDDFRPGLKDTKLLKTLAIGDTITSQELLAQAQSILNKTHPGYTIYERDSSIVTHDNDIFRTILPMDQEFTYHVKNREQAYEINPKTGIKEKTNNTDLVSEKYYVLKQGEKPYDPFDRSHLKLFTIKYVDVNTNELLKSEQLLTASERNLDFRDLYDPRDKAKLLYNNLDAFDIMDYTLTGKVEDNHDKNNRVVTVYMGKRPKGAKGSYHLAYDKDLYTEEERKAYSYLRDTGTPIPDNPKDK

BJ [4] = assay: cells; format: functional, cell-based; settings: Homo sapiens
BJ [5] = assay: BJ-TERT-LT-ST fibroblast viability loss – cell-based, RAS-independent, luminescence, dose response (AID 1935); format: functional; settings: Homo sapiens;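 also: BJ fibroblasts immortalized with TERT plus LT and ST oncogenes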
[6] = DRD fibroblast viability loss – cell-based, non-viral oncogenic, luminescence, dose response (AID 1934); format: functional; settings: Homo sapiens
Streptococcus = assay: GAS UMAA2166 growth inhibition – luminescence, BacTiterGlo, counter-screen for streptokinase expression inhibitor project, dose response (AID 1915); format: functional, organism-based;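 also: potency for reduction of bacterial viability or growth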
[7] = target: T3, Tyrosine-protein phosphatase non-receptor type 22 (Homo sapiens, UniProt Q9Y2R2); format: functional
T3 sequence (Q9Y2R2 whole entry): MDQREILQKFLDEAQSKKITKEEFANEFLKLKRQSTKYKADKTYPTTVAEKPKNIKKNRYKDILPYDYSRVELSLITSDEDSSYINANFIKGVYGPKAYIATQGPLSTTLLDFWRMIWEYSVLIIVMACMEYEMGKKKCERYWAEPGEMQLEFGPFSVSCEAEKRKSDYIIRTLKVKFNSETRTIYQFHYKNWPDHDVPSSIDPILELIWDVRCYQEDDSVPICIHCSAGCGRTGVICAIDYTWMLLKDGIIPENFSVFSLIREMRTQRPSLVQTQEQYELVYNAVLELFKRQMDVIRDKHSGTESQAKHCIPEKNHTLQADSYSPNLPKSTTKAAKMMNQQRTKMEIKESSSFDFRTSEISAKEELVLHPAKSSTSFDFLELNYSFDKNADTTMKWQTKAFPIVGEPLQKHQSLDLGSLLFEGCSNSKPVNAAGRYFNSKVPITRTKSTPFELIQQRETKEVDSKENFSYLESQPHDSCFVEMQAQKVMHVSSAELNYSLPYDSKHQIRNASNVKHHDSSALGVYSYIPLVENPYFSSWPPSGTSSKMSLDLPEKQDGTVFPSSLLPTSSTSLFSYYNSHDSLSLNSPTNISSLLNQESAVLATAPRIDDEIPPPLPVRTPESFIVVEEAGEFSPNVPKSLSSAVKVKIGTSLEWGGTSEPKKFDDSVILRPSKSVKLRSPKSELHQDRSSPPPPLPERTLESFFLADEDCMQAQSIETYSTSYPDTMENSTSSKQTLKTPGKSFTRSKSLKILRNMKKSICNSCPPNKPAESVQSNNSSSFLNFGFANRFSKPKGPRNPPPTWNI

[8] = target: T3, Tyrosine-protein phosphatase non-receptor type 22; format: functional; remark: listed apart in the source
Vero = assay: cells; format: functional; settings: Chlorocebus sabaeus
[9] = target: T4, Mannose-6-phosphate isomerase (Homo sapiens, UniProt P34949); assay: MPI inhibition at elevated mannose 6-phosphate – biochemical, fluorescence intensity, high mannose 6-phosphate, primary screen (AID 1220)
T4 sequence (P34949 whole entry): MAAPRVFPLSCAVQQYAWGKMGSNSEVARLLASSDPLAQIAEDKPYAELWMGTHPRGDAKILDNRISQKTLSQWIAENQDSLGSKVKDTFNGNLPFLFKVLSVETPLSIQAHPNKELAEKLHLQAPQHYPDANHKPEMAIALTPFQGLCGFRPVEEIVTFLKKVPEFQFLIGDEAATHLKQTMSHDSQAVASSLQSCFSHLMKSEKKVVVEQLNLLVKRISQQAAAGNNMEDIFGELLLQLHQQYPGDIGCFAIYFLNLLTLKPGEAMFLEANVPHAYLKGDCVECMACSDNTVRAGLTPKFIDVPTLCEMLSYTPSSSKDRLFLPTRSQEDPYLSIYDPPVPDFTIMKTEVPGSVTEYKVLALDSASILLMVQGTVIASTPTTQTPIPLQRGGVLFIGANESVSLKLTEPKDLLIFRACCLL

[10] = target: Glucose-6-phosphate 1-dehydrogenase (Homo sapiens, UniProt P11413); assay: inhibition of Homo sapiens G6PD, dose series – biochemical, fluorescence, selectivity assay for P. falciparum G6PD inhibitor project, dose response (AID 504792); format: functional
Sequence of Glucose-6-phosphate 1-dehydrogenase (P11413 whole entry): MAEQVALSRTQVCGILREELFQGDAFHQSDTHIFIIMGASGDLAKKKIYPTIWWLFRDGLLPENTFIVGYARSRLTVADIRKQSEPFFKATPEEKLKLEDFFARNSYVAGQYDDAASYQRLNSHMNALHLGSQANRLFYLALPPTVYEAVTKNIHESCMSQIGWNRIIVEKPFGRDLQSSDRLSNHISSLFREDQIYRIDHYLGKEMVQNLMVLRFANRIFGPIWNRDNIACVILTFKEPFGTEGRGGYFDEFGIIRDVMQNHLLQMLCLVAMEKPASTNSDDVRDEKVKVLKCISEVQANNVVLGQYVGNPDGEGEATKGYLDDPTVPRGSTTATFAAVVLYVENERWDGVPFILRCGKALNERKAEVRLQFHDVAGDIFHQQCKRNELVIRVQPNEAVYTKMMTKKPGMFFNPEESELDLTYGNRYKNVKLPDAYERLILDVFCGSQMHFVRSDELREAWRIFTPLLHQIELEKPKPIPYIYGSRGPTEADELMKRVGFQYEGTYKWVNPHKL

Protein Tat = target: T5, Protein Tat (Human immunodeficiency virus type 1 group M subtype B (isolate HXB2)(HIV-1), UniProt P04608); format: functional;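 also: tat binding to TAR RNA read out by fluorescence polarization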
T5 sequence (P04608 whole entry): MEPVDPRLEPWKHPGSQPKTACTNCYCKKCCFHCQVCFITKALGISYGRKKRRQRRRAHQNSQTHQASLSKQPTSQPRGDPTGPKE

[11] = viability loss in THP-1 monocytes – THP-1 cells, cytotoxicity control for Vif-APOBEC3G degradation inhibitor project, dose response (AID 1117359); format: functional; settings: THP-1
[12] = target: T6, Apoptotic protease-activating factor 1 (Homo sapiens, UniProt O14727); format: functional
T6 sequence (O14727 whole entry): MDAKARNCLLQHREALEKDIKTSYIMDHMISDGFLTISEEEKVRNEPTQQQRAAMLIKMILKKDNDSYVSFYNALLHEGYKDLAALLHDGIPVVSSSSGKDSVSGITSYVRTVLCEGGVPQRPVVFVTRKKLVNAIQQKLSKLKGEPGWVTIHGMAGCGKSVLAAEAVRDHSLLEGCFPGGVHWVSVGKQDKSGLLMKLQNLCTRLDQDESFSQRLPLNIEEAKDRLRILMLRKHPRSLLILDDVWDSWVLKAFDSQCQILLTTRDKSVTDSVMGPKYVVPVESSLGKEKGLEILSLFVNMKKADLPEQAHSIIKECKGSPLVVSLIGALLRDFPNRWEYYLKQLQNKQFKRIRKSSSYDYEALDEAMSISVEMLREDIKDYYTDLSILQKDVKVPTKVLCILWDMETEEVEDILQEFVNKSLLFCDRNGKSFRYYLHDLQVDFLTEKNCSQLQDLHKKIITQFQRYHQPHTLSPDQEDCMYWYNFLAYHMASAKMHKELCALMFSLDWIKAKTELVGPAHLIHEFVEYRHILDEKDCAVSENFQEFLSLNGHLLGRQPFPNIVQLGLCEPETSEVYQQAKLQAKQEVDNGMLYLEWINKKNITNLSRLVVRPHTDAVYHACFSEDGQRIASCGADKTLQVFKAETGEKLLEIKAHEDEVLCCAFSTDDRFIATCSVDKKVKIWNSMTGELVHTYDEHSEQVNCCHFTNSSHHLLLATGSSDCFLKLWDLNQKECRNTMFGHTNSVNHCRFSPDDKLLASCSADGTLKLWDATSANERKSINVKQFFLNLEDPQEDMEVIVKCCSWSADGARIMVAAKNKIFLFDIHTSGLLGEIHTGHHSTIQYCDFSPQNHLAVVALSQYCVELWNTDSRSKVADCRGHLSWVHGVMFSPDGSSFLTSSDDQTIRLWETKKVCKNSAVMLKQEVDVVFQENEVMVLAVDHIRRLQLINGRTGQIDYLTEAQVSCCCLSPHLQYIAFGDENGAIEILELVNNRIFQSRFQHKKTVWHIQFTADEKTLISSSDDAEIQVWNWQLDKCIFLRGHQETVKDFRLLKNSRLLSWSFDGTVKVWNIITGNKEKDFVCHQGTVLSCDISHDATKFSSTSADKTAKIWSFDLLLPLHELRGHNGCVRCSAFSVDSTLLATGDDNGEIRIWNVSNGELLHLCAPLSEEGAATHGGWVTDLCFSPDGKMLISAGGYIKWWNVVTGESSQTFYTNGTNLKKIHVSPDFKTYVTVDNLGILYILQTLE

[13] = target: Delta-type opioid receptor (Homo sapiens, UniProt P41143); assay: Counterscreen for agonists of heterodimerization of the mu 1 (OPRM1) and delta 1 (OPRD1) opioid receptors: Luminescence-based cell-based high throughput dose response assay to identify agonists of OPRD1 homodimerization. [Related pubchem assays (depositor defined):AID504326, AID504355, AID504692, AID504904, AID504905]; format: functional
Sequence of Delta-type opioid receptor (P41143 whole entry): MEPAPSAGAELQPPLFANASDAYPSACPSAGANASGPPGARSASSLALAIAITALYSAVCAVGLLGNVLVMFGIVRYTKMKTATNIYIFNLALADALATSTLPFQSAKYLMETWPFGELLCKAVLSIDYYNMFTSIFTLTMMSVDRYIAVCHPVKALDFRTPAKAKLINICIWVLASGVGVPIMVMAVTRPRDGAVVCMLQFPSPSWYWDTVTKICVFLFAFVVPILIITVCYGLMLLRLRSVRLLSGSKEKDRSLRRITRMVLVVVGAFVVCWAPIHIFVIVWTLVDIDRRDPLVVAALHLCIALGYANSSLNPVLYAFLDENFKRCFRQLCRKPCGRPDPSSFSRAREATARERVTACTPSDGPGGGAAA

Mu-type opioid receptor = Mu-type opioid receptor (Homo sapiens, UniProt P35372); assay: Counterscreen for agonists of heterodimerization of the mu 1 (OPRM1) and delta 1 (OPRD1) opioid receptors: Luminescence-based cell-based high throughput dose response assay to identify agonists of OPRM1 homodimerization.; format: functional;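 also: U2OS cells expressing OPRM1 and beta-arrestin as split beta-galactosidase partners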
Sequence of Mu-type opioid receptor (P35372 whole entry): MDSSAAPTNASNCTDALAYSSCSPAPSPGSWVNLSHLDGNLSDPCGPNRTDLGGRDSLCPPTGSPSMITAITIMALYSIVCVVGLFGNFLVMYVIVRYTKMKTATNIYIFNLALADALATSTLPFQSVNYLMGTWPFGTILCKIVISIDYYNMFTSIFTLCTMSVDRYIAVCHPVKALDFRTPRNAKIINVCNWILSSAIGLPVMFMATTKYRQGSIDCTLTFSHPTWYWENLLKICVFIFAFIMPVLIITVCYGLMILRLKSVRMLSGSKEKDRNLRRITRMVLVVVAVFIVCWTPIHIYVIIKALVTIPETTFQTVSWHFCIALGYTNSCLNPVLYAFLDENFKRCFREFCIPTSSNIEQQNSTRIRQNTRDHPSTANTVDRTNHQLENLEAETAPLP

[14] = target: 5-hydroxytryptamine receptor 5A (Homo sapiens, UniProt P47898); assay: Counterscreen for agonists of OPRM1-OPRD1 heterodimerization: luminescence-based cell-based high throughput dose response assay to identify agonists of 5-hydroxytryptamine (serotonin) 5A receptor (HTR5A). [Related pubchem assays (depositor defined):AID504326, AID504355, AID504692, AID504904, AID504905]; format: functional
Sequence of 5-hydroxytryptamine receptor 5A (P47898 whole entry): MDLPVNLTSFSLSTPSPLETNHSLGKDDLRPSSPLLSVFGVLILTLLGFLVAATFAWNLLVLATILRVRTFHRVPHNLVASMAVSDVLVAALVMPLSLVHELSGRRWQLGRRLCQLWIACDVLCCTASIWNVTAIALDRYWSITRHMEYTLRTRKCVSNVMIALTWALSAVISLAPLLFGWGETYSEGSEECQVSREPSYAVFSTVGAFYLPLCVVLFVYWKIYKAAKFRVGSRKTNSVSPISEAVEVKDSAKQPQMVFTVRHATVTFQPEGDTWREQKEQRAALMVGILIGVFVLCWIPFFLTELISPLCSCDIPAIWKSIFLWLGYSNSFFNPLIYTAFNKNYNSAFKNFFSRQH

[15] = target: 26S proteasome non-ATPase regulatory subunit 14 (Homo sapiens, UniProt O00487); assay: inhibition of proteasome subunit RPN11 – biochemical, fluorescence polarization, uHTS hits, confirmation (AID 602368); format: functional
Sequence of 26S proteasome non-ATPase regulatory subunit 14 (O00487 whole entry): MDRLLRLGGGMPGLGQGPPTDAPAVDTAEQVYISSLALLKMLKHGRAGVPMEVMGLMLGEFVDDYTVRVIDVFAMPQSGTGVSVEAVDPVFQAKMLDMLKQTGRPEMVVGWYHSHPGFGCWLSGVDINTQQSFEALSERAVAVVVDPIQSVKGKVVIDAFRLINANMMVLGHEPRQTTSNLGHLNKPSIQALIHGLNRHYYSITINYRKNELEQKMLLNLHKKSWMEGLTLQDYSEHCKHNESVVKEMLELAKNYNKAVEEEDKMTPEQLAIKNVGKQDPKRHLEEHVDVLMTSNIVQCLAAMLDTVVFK

[16] = target: 72 kDa type IV collagenase (Homo sapiens, UniProt P08253); assay: Dose Response validation of uHTS RPN11 inhibitor hits using a MMP-2 Fluorescence assay.; format: functional
Sequence of 72 kDa type IV collagenase (P08253 whole entry): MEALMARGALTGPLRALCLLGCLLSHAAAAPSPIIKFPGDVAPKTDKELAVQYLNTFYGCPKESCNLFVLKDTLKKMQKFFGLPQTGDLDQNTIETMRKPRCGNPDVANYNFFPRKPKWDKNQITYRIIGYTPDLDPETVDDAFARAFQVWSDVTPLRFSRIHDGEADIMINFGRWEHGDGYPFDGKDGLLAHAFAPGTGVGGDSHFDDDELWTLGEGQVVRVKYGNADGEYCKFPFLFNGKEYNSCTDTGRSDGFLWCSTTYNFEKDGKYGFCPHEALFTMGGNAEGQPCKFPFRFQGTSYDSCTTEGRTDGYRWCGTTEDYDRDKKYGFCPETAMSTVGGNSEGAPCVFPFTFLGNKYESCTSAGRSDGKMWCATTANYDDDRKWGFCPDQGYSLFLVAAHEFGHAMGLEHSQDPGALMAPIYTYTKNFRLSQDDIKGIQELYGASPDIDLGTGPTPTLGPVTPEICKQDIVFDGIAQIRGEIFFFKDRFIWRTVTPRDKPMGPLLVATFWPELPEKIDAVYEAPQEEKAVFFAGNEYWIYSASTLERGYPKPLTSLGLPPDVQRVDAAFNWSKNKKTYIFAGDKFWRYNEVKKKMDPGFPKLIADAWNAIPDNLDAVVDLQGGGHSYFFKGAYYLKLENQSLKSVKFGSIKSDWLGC

Prothrombin = Prothrombin (Bos taurus, UniProt P00735); assay: thrombin protease inhibitors – biochemical, fluorescence polarization, uHTS hits, dose response (AID 602369); format: functional

Cc1nn2cc(-c3ccc(Cl)cc3)cnc2c1Cl
AC50 (HeLa): 108 µM (active)

O=C(N/N=C/c1ccccn1)c1ccc(Cl)c(Cl)c1
EC50 [1]: 6.21 µM (active) | EC50 (BJ [2]): 21.6 µM (active) | IC50 [3]: > 79.4 µM (inactive) | EC50 (Streptokinase A): > 150 µM (not active) | EC50 (BJ [4]): > 150 µM (not active) | EC50 (BJ [5]): > 150 µM (not active) | EC50 [6]: > 150 µM (not active) | EC50 (Streptococcus): 22.9 µM (active) | IC50 [7]: > 79.4 µM (inactive) | IC50 [8]: > 79.4 µM (inactive) | CC50 (Vero): > 25 µM (active)

CCOc1ccc(CNc2ccc(N3CCCC3)cc2)cc1
IC50 [9]: > 50 µM (not active) | IC50 [10]: > 80 µM (inactive) | IC50 (Protein Tat): 75.3 µM (inconclusive) | CC50 [11]: > 40 µM (active)

Cc1cc(N2CCN(c3ccc([N+](=O)[O-])c4cccnc34)CC2)c2ccccc2n1
IC50 [12]: 34 µM (active) | EC50 [13]: > 92.5 µM (inactive) | EC50 (Mu-type opioid receptor): > 92.5 µM (inactive) | EC50 [14]: > 92.5 µM (inactive) | IC50 [15]: 27.7 µM (active) | IC50 [16]: > 100 µM (inactive) | IC50 (Prothrombin): 27.7 µM (active)
